# Experimental data from patent publication US20060216336A1, “Transdermal therapeutic system for Parkinson's Disease” (priority 2002, published 2006).
# Experiments:
# [1] = Multiple dose trial with rotating patch application sites in early-stage Parkinson's disease: rotigotine pharmacokinetics (Example 4); details: human, in vivo; for concentration at […]: 23.5 H
# Description: Each day, a fresh patch was placed on a new skin site (abdomen, flank, upper arm, shoulder, thigh, hip) in a rotating order. The silicone transdermal patches were made in accordance with the teachings of U.S. Patent Application Publication No. US 2003/0026830 at paragraphs 38-42, U.S. Patent Application Publication No. US 2003/0027793 at paragraphs 37-41 and U.S. Pat. No. 6,884,434, columns 5-6, Example 2 and comprised the following layers and components:
# The trial consisted of an Eligibility Assessment (EA), a 24-day Titration Phase (4.5 to 18.0 mg/day doses; incremental increases of 4.5mg/day every 6 days), a 6-day Maintenance Phase (18.0 mg/day dose), a 6-day De-escalation Phase (13.5/9.0/4.5mg/day decreasing dose every 2 days), and a Safety Follow-Up visit 2 days following the last dose.
# The silicone transdermal patches were made in accordance with the teachings of U.S. Patent Application Publication No. US 2003/0026830 at paragraphs 3842 and U.S. Patent Application Publication No. US 2003/0027793 at paragraphs 3741 comprised the following layers and components as disclosed above
# The 18.0 mg/day dose used 2×20 cm^2 patches. Initial doses were 4.5 mg/day with weekly increases of 4.5 mg/day to a maximum target dose of 18.0 mg/day.
# [2] = tested on: RLS symptoms; details: administration of rotigotine; cited from earlier work
# [3] = rotigotine plasma concentration Geo. Mean
# [4] = rotigotine plasma concentration Max
# [5] = rotigotine plasma concentration Mean
# [6] = rotigotine plasma concentration Median
# [7] = rotigotine plasma concentrations, Geo. Mean
# [8] = rotigotine plasma concentrations, Mean
# [9] = rotigotine plasma concentrations, Median
compound,measurement,setting,value
"CCCN(CCc1cccs1)[C@H]1CCc2c(O)cccc2C1 [rotigotine, (6S)-6{propyl[2-(2-thienyl)ethyl]amino}-5,6,7,8-tetrahydro-1-naphthalenol]",concentration at […],"[1]; 18 mg/day, rotigotine plasma concentration Min, Upper Arm, Day 27",0.129 ng/mL
same,concentration at […],"[1]; 18 mg/day, rotigotine plasma concentration Min, Upper Arm, Day 30",0.347 ng/mL
same,concentration at […],"[1]; 18 mg/day, rotigotine plasma concentration Min, Upper Arm, Days 27 & 30 Combined",0.129 ng/mL
same,concentration at […],"[1]; 18 mg/day, rotigotine plasma concentrations, Geo. Mean, Application Site = Abdomen, Day 27",0.806 ng/mL
same,concentration at […],"[1]; 18 mg/day, rotigotine plasma concentrations, Geo. Mean, Application Site = Abdomen, Day 30",0.545 ng/mL
same,concentration at […],"[1]; 18 mg/day, rotigotine plasma concentrations, Geo. Mean, Application Site = Abdomen, Days 27 & 30 Combined",0.676 ng/mL
same,concentration at 7 h,"[1]; 18 mg/day, rotigotine plasma concentrations, Geo. Mean, Application Site = Flank, Days 27 & 30 Combined, 7 H",0.681 ng/mL
same,concentration at […],"[1]; 18 mg/day, rotigotine plasma concentrations, Geo. Mean, Application Site = Flank, Days 27 & 30 Combined",0.81 ng/mL
same,concentration at […],"[1]; 18 mg/day, rotigotine plasma concentrations, Mean, Application Site = Abdomen, Day 27",0.929 ng/mL
same,concentration at […],"[1]; 18 mg/day, rotigotine plasma concentrations, Mean, Application Site = Abdomen, Day 30",0.613 ng/mL
same,concentration at […],"[1]; 18 mg/day, rotigotine plasma concentrations, Mean, Application Site = Abdomen, Days 27 & 30 Combined",0.787 ng/mL
same,concentration at […],"[1]; 18 mg/day, rotigotine plasma concentrations, Mean, Application Site = Flank, Days 27 & 30 Combined",1.1 ng/mL
same,concentration at […],"[1]; 18 mg/day, rotigotine plasma concentrations, Median, Application Site = Abdomen, Day 30",0.415 ng/mL
same,concentration at […],"[1]; 18 mg/day, rotigotine plasma concentrations, Median, Application Site = Abdomen, Days 27 & 30 Combined",0.677 ng/mL
same,concentration at […],"[1]; 18 mg/day, rotigotine plasma concentrations, Median, Application Site = Flank, Days 27 & 30 Combined",0.714 ng/mL
same,AUC(0-t),"[1]; AUC 0-t, ss",23.8 ng·h/mL
same,concentration at 27 day,[1]; Average Concentration,0.882 ng/mL
same,concentration at 30 day,[1]; Average Concentration,0.975 ng/mL
same,concentration at 5 h,[1]; [3],0.971 ng/mL
same,concentration at 6 h,[1]; [3],0.837 ng/mL
same,concentration at 7 h,[1]; [3],0.993 ng/mL
same,concentration at 14 h,[1]; [3],1.15 ng/mL
same,concentration at 16 h,[1]; [3],1.15 ng/mL
same,concentration at 18 h,[1]; [3],1.16 ng/mL
same,concentration at 20 h,[1]; [3],1.14 ng/mL
same,concentration at 22 h,[1]; [3],0.815 ng/mL
same,concentration at 10 h,[1]; [4],1.98 ng/mL
same,concentration at 16 h,[1]; [4],2.53 ng/mL
same,concentration at 18 h,[1]; [4],3.25 ng/mL
same,concentration at 22 h,[1]; [4],1.77 ng/mL
same,concentration at 6 h,[1]; [5],0.911 ng/mL
same,concentration at 7 h,[1]; [5],1.08 ng/mL
same,concentration at 10 h,[1]; [5],1.17 ng/mL
same,concentration at 14 h,[1]; [5],1.26 ng/mL
same,concentration at 16 h,[1]; [5],1.28 ng/mL
same,concentration at 18 h,[1]; [5],1.32 ng/mL
same,concentration at 20 h,[1]; [5],1.4 ng/mL
same,concentration at 22 h,[1]; [5],0.904 ng/mL
same,concentration at 5 h,[1]; [6],0.956 ng/mL
same,concentration at 14 h,[1]; [6],1.21 ng/mL
same,concentration at 16 h,[1]; [6],1.06 ng/mL
same,concentration at 18 h,[1]; [6],1.17 ng/mL
same,concentration at 20 h,[1]; [6],1.04 ng/mL
same,concentration at 22 h,[1]; [6],0.734 ng/mL
same,concentration at 10 h,[1]; [7],0.816 ng/mL
same,concentration at 12 h,[1]; [7],0.848 ng/mL
same,concentration at 14 h,[1]; [7],0.84 ng/mL
same,concentration at 16 h,[1]; [7],1 ng/mL
same,concentration at 18 h,[1]; [7],1.01 ng/mL
same,concentration at 20 h,[1]; [7],1.02 ng/mL
same,concentration at 22 h,[1]; [7],0.91 ng/mL
same,concentration at 10 h,[1]; [8],0.909 ng/mL
same,concentration at 12 h,[1]; [8],0.911 ng/mL
same,concentration at 14 h,[1]; [8],0.931 ng/mL
same,concentration at 16 h,[1]; [8],1.07 ng/mL
same,concentration at 18 h,[1]; [8],1.06 ng/mL
same,concentration at 20 h,[1]; [8],1.08 ng/mL
same,concentration at 22 h,[1]; [8],1.01 ng/mL
same,concentration at 10 h,[1]; [9],0.766 ng/mL
same,concentration at 12 h,[1]; [9],0.763 ng/mL
same,concentration at 14 h,[1]; [9],0.816 ng/mL
same,concentration at 16 h,[1]; [9],0.904 ng/mL
same,concentration at 18 h,[1]; [9],1.08 ng/mL
same,concentration at 20 h,[1]; [9],0.962 ng/mL
same,concentration at 22 h,[1]; [9],0.804 ng/mL
same,effect on RLS symptoms,[2],suppression and reduction of RLS symptoms
